Data published in article PMC2009935, “Biological activities of dihydrodiols derived from two polycyclic hydrocarbons in rodent test systems” (British Journal of Cancer, 1979).

How the values were obtained:
mouse skin [1] = tested on: mouse skin
mouse skin [2] = settings: total doses 75-150 ug in 3 applications
mouse skin [3] = assay: Short-term test on mouse skin: suppression of sebaceous glands
Wistar rats = assay: Induction of sarcomas after s.c. injection into Wistar rats
[4] = single dose 25 ug, TPA promotion
[5] = female Wistar rats, single s.c. injection 0.9 mg in olive oil, up to 9 months

Cc1c2ccccc2cc2c3c(ccc12)C=C[C@@H](O)[C@@H]3O (relative stereo) [1,2-dihydrodiol, trans-1,2-Dihydro-1,2-dihydroxy-7-methylbenz[a]anthracene]
tumour development in the initiated mice (in words) (mouse skin [1]; [4]): only really increased after the amount of TPA applied had been doubled

Cc1c2c(cc3c1ccc1ccccc13)C=C[C@@H](O)[C@@H]2O (relative stereo) [8,9-dihydrodiol, trans-8,9-dihydro-8,9-dihydroxy-7-methylbenz[a]anthracene]
tumour development in the initiated mice (in words) (mouse skin [1]; [4]): only really increased after the amount of TPA applied had been doubled

O[C@H]1C=Cc2c(cc3ccc4cccc5ccc2c3c45)[C@@H]1O (relative stereo) [trans-7,8-Dihydro-7,8-dihydroxy-BP, trans-7,8-Dihydro-7,8-dihydroxybenzo[a]pyrene]
induction of hyperplasia in mouse skin (in words) (mouse skin [2]): some activity as a hyperplastic agent | suppression of sebaceous glands in mouse skin (in words) (mouse skin [3]; total doses 75-150 ug in 3 applications): some activity | sarcomas induced in the group of rats (Wistar rats; [5]): one | activity as s.c. carcinogen in rats (in words) (Wistar rats; single s.c. injection 0.9 mg in olive oil): very much less active than benzo[a]pyrene as an s.c. carcinogen in rats

Cc1c2ccccc2cc2c1ccc1ccccc12 [7-methylbenz[a]anthracene, reference compound]
tumour-initiating activity on mouse skin (in words) (mouse skin [1]; female CDI mice, single dose 25 ug in acetone on dorsal skin, TPA thrice weekly for 52 weeks): more active than the related 1,2-, 5,6- and 8,9-dihydrodiols | skin-tumour incidence plateau, first or only, time after initiation (mouse skin [1]; [4]): > 40 weeks

c1ccc2c(c1)cc1ccc3cccc4ccc2c1c34 [BP, benzo[a]pyrene, reference compound]
Sebaceous glands, No. present (mouse skin [3]; total dose 150.0 ug in 3 applications in acetone, 8 days after first treatment, 12 microscopic fields): 0.0 | No. with sarcomas (Wistar rats; Table III, female Wistar rats, single s.c. injection 0.9 mg in 0.5 ml olive oil, up to 9 months, 30 animals): 24 | sarcomas induced in the group of rats (Wistar rats; [5]): 24/30
